The text below walks through data of patent US10758534B2 (Vertex Pharmaceuticals Incorporated, priority 2014, dated 2020).

Molecules are shown by their SMILES.

This test deals with T1, F508del (Homo sapiens, UniProt P13569, DEL508-508).
T1 construct: expressed in transfected cells
T1 sequence (P13569 with tags, fused parts or gaps DEL508-508): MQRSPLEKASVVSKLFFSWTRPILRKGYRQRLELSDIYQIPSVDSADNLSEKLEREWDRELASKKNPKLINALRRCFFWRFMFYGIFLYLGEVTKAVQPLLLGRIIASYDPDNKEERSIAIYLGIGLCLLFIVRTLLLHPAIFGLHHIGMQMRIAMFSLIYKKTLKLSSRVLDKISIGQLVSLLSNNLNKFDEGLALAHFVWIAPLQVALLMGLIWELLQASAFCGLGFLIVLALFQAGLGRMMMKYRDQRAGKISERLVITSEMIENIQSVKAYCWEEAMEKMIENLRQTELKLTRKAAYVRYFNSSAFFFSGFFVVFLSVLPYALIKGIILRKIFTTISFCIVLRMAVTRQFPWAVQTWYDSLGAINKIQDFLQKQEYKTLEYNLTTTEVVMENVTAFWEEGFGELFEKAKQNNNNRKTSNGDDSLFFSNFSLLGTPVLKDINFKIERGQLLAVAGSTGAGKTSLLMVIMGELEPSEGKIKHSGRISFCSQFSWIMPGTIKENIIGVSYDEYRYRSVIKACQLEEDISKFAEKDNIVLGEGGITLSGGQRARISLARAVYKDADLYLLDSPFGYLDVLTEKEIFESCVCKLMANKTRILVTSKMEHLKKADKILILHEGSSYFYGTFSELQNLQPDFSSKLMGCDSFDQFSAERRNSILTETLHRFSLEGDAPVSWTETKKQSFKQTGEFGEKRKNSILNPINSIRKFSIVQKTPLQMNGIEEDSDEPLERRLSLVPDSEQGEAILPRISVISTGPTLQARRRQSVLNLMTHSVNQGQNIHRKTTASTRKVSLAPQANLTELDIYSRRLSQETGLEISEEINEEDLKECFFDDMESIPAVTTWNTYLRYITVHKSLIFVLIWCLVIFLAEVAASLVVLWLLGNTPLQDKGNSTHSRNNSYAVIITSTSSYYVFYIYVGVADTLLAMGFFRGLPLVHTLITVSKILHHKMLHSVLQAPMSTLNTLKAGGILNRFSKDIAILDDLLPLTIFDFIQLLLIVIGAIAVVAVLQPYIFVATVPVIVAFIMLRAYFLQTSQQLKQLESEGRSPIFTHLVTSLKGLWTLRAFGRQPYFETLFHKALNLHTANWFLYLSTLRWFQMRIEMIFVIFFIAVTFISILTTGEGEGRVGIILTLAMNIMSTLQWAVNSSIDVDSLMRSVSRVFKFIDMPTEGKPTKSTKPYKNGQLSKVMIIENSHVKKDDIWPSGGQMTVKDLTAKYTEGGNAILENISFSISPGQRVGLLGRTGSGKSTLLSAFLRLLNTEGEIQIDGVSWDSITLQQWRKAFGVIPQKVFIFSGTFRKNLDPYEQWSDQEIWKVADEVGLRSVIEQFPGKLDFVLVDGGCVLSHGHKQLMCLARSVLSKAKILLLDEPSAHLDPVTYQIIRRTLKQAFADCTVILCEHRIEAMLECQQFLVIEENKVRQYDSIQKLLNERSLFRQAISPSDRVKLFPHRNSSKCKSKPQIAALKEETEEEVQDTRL
Nature of the test: Protocol 1: membrane potential optical assay (FLIPR III, voltage sensing dye), identification of potentiator compounds. It is filed as cell-based. The following applies: Table 3, compounds of Table 1. The method in brief: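 NIH 3T3 fibroblasts stably expressing F508del were cultured at 27° C for 24 hrs for temperature correction, then treated with compounds or DMSO and loaded with a voltage-sensing redistribution dye. Forskolin added with a Cl⁻ gradient activated the channel; membrane-potential fluorescence on FLIPR III reported increased gating.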
For `C[C@@H]1CN(c2nc(-c3cccc(Cl)c3)ccc2C(=O)NS(=O)(=O)c2ccc[nH]c2=O)C(C)(C)C1` [Compound 1791, 6-(3-chlorophenyl)-N-[(2-oxo-1H-pyridin-3-yl)sulfonyl]-2-[(4S)-2,2,4-trimethylpyrrolidin-1-yl]pyridine-3-carboxamide], the EC30 entry is on record as “+++ (“+++” means <3 uM)”.
With `Cc1cc(C)c(Oc2nc(C3CC4CCC3(C)C4(C)C)ccc2C(=O)NS(=O)(=O)c2cccc(N)n2)c(C)c1` (stereo not drawn) [Compound 1650, N-[(6-amino-2-pyridyl)sulfonyl]-6-(1,7,7-trimethylnorbornan-2-yl)-2-(2,4,6-trimethylphenoxy)pyridine-3-carboxamide], the EC30 result is recorded as “+++ (“+++” means <3 uM)”.
With `CC1CN(c2nc(-c3ccc(OC(C)C)nc3)ccc2C(=O)NS(=O)(=O)c2ccn[nH]2)C(C)(C)C1` (stereo not drawn) [Compound 1352, 6-(6-isopropoxy-3-pyridyl)-N-(1H-pyrazol-5-ylsulfonyl)-2-(2,2,4-trimethylpyrrolidin-1-yl)pyridine-3-carboxamide] the entry was “+++ (“+++” means <3 uM)”.
For `CCOc1cccc2c1CN(Cc1c(C)cc(C)cc1C)C2(C)C(=O)NS(=O)(=O)c1cncs1` (stereo not drawn) [Compound 1606, 4-ethoxy-1-methyl-N-thiazol-5-ylsulfonyl-2-[(2,4,6-trimethylphenyl)methyl]isoindoline-1-carboxamide], the EC30 entry was “+++ (“+++” means <3 uM)”.
With `COCC1CCCN(c2nc(-c3ccc(OC(C)C)nc3)ccc2C(=O)NS(=O)(=O)c2cccc(N)n2)C1` (stereo not drawn) [Compound 1116, N-[(6-amino-2-pyridyl)sulfonyl]-6-(6-isopropoxy-3-pyridyl)-2-[3-(methoxymethyl)-1-piperidyl]pyridine-3-carboxamide] the entry was “++ (“++” means between 3 uM and 10 uM)”; with `CCN(CC)c1cccc(-c2ccc(C(=O)NS(=O)(=O)c3cccnc3N)c(N3C[C@@H](C)CC3(C)C)n2)n1` [Compound 1845, N-[(2-amino-3-pyridyl)sulfonyl]-6-[6-(diethylamino)-2-pyridyl]-2-[(4S)-2,2,4-trimethylpyrrolidin-1-yl]pyridine-3-carboxamide], “+++ (“+++” means <3 uM)”.
With `Cc1cc(C)c(Oc2nc(N3[C@H](C)CC[C@@H]3C)c(C)cc2C(=O)NS(=O)(=O)c2cccc(N)n2)c(C)c1` [Compound 1589, N-[(6-amino-2-pyridyl)sulfonyl]-6-[(2R,5S)-2,5-dimethylpyrrolidin-1-yl]-5-methyl-2-(2,4,6-trimethylphenoxy)pyridine-3-carboxamide] the entry was “+++ (“+++” means <3 uM)”.
With `COc1ncc(-c2ccc(C(=O)NS(=O)(=O)c3cccc(N)n3)c(N3CCC(C)CC3)n2)cc1C` [Compound 863, N-[(6-amino-2-pyridyl)sulfonyl]-6-(6-methoxy-5-methyl-3-pyridyl)-2-(4-methyl-1-piperidyl)pyridine-3-carboxamide] the entry was “++ (“++” means between 3 uM and 10 uM)”; with `CCOc1ncc(-c2ccc(C(=O)NS(=O)(=O)c3cccc(N)n3)c(Oc3c(C)cc(C)cc3C)n2)cn1` [Compound 1130, N-[(6-amino-2-pyridyl)sulfonyl]-6-(2-ethoxypyrimidin-5-yl)-2-(2,4,6-trimethylphenoxy)pyridine-3-carboxamide], “++ (“++” means between 3 uM and 10 uM)”.
Turning to `C[C@@H]1CN(c2nc(-c3ccc4ccccc4c3)ccc2C(=O)NS(=O)(=O)c2ccc[nH]c2=O)C(C)(C)C1` [Compound 1803, 6-(2-naphthyl)-N-[(2-oxo-1H-pyridin-3-yl)sulfonyl]-2-[(4S)-2,2,4-trimethylpyrrolidin-1-yl]pyridine-3-carboxamide], the EC30 result is “+++ (“+++” means <3 uM)”.
With `CC1CN(c2ncccc2C(=O)NS(=O)(=O)c2cccc(N3CCCCCC3)n2)C(C)(C)C1` (stereo not drawn) [Compound 1932, N—[[6-(azepan-1-yl)-2-pyridyl]sulfonyl]-2-(2,2,4-trimethylpyrrolidin-1-yl)pyridine-3-carboxamide] the entry was “+++ (“+++” means <3 uM)”; with `CC(C)COc1cc(F)cc(-c2ccc(C(=O)NS(=O)(=O)c3cccc(N)n3)c(N3CCCC4CCCC43)n2)c1` (stereo not drawn) [Compound 1313, 2-(2,3,4,4a,5,6,7,7a-octahydrocyclopenta[b]pyridin-1-yl)-N-[(6-amino-2-pyridyl)sulfonyl]-6-(3-fluoro-5-isobutoxy-phenyl)pyridine-3-carboxamide], “+++ (“+++” means <3 uM)”.
With `CCOc1nn(-c2ccc(C(=O)NS(=O)(=O)c3ccc[nH]c3=O)c(N3C[C@@H](C)CC3(C)C)n2)cc1C` [Compound 1856, 6-(3-ethoxy-4-methyl-pyrazol-1-yl)-N-[(2-oxo-1H-pyridin-3-yl)sulfonyl]-2-[(4S)-2,2,4-trimethylpyrrolidin-1-yl]pyridine-3-carboxamide] the entry was “+++ (“+++” means <3 uM)”; with `CC(C)COc1cc(F)cc(-c2ccc(C(=O)NS(=O)(=O)c3cccc(N)n3)c(C3=CCC(C(F)(F)F)CC3)n2)c1` (stereo not drawn) [Compound 1667, N-[(6-amino-2-pyridyl)sulfonyl]-6-(3-fluoro-5-isobutoxy-phenyl)-2-[4-(trifluoromethyl)cyclohexen-1-yl]pyridine-3-carboxamide], “++ (“++” means between 3 uM and 10 uM)”.
With `C[C@@H]1CN(c2nc(-c3cccc(OCC(C)(C)C)n3)ccc2C(=O)NS(=O)(=O)c2cccc(N)n2)C(C)(C)C1` [Compound 1663, N-[(6-amino-2-pyridyl)sulfonyl]-6-[6-(2,2-dimethylpropoxy)-2-pyridyl]-2-[(4S)-2,2,4-trimethylpyrrolidin-1-yl]pyridine-3-carboxamide] the entry was “+++ (“+++” means <3 uM)”; with `CC(C)Oc1ccc(-c2ccc(C(=O)NS(=O)(=O)c3cccc(N)n3)c(N3CCCCCC3)n2)cn1` [Compound 940, N-[(6-amino-2-pyridyl)sulfonyl]-2-(azepan-1-yl)-6-(6-isopropoxy-3-pyridyl)pyridine-3-carboxamide], “+++ (“+++” means <3 uM)”; with `CC1CN(c2ncccc2C(=O)NS(=O)(=O)c2cccc(N3CCN(c4ccccn4)CC3)n2)C(C)(C)C1` (stereo not drawn) [Compound 1816, N—[[6-[4-(2-pyridyl)piperazin-1-yl]-2-pyridyl]sulfonyl]-2-(2,2,4-trimethylpyrrolidin-1-yl)pyridine-3-carboxamide], “+++ (“+++” means <3 uM)”.
In the case of `Cc1cc(OC(C)C)ncc1-c1ccc(C(=O)NS(=O)(=O)c2cccc(N)n2)c(N2CC(C)CC2(C)C)n1` (stereo not drawn) [Compound 905, N-[(6-amino-2-pyridyl)sulfonyl]-6-(6-isopropoxy-4-methyl-3-pyridyl)-2-(2,2,4-trimethylpyrrolidin-1-yl)pyridine-3-carboxamide], the EC30 entry was “+++ (“+++” means <3 uM)”.
With `CC(C)COc1cc(F)cc(-c2ccc(C(=O)NS(=O)(=O)c3cccc(N)n3)c(N3CC(C)(C)OCC3(C)C)n2)c1` [Compound 1675, N-[(6-amino-2-pyridyl)sulfonyl]-6-(3-fluoro-5-isobutoxy-phenyl)-2-(2,2,5,5-tetramethylmorpholin-4-yl)pyridine-3-carboxamide] the entry was “++ (“++” means between 3 uM and 10 uM)”; with `Cc1cc(C)c(Oc2ncc(C3(C)CC3)cc2C(=O)NS(=O)(=O)c2cccc(N)n2)c(C)c1` [Compound 854, N-[(6-amino-2-pyridyl)sulfonyl]-5-(1-methylcyclopropyl)-2-(2,4,6-trimethylphenoxy)pyridine-3-carboxamide], “++ (“++” means between 3 uM and 10 uM)”; with `C[C@@H]1CN(c2nc(CCC3CC3)ccc2C(=O)NS(=O)(=O)c2cccc(N)n2)C(C)(C)C1` [Compound 1677, N-[(6-amino-2-pyridyl)sulfonyl]-6-(2-cyclopropylethyl)-2-[(4S)-2,2,4-trimethylpyrrolidin-1-yl]pyridine-3-carboxamide], “+++ (“+++” means <3 uM)”.
Consider `CC(C)Oc1ccc(-c2ccc(C(=O)NS(=O)(=O)c3cccc(N)n3)c(N3CCCC3Cc3ccccc3)n2)cn1` (stereo not drawn) [Compound 994, N-[(6-amino-2-pyridyl)sulfonyl]-2-(2-benzylpyrrolidin-1-yl)-6-(6-isopropoxy-3-pyridyl)pyridine-3-carboxamide], for which the EC30 result is reported as “+++ (“+++” means <3 uM)”.
In the case of `CC1CN(c2nc(C(C)(C)C)c(C3=CCCC4(C3)OCCO4)cc2C(=O)NS(=O)(=O)c2cccc(N)n2)C(C)(C)C1` (stereo not drawn) [Compound 1469, N-[(6-amino-2-pyridyl)sulfonyl]-6-tert-butyl-5-(1,4-dioxaspiro[4.5]dec-8-en-9-yl)-2-(2,2,4-trimethylpyrrolidin-1-yl)pyridine-3-carboxamide], the EC30 entry is “++ (“++” means between 3 uM and 10 uM)”.
With `CC(C)COc1cc(F)cc(-c2ccc(C(=O)NS(=O)(=O)c3cccc(N)n3)c(O[C@@H]3C[C@H]4CC[C@@H]3C4)n2)c1` [Compound 1216, N-[(6-amino-2-pyridyl)sulfonyl]-6-(3-fluoro-5-isobutoxy-phenyl)-2-[(1R,2R,4S)-norbornan-2-yl]oxy-pyridine-3-carboxamide] the entry was “+++ (“+++” means <3 uM)”; with `COc1cc(Cl)ccc1-c1ccc(C(=O)NS(=O)(=O)c2cccc(N)n2)c(Oc2c(C)cc(C)cc2C)n1` [Compound 897, N-[(6-amino-2-pyridyl)sulfonyl]-6-(4-chloro-2-methoxy-phenyl)-2-(2,4,6-trimethylphenoxy)pyridine-3-carboxamide], “+++ (“+++” means <3 uM)”; with `CC(C)CN(C)c1cc(-c2ccc(C(=O)NS(=O)(=O)c3cccc(N)n3)c(N3CC(C)CC3(C)C)n2)ccn1` (stereo not drawn) [Compound 898, N-[(6-amino-2-pyridyl)sulfonyl]-6-[2-[isobutyl(methyl)amino]-4-pyridyl]-2-(2,2,4-trimethylpyrrolidin-1-yl)pyridine-3-carboxamide], “+++ (“+++” means <3 uM)”.
With `CC1CN(c2nc(-c3cnn(C(C)C)c3)ccc2C(=O)NS(=O)(=O)c2cccc(N)n2)C(C)(C)C1` (stereo not drawn) [Compound 1067, N-[(6-amino-2-pyridyl)sulfonyl]-6-(1-isopropylpyrazol-4-yl)-2-(2,2,4-trimethylpyrrolidin-1-yl)pyridine-3-carboxamide] the entry was “+++ (“+++” means <3 uM)”.
